Bridge positions count the residues as written; N and C are the ends. Peptide text beside a SMILES is read from it.

The source of these data is US4663309A, “Novel peptide hormones with calcitonin-like activity” (University Patents, Inc., priority 1985, dated 1987).

The nature of series [1]: Surface monolayer studies at the air-water interface. Format: physicochemical. As to conditions: for Collapse pressure of the monolayer: air-water interface, 0.01M Tris.HCl pH 7.4, 0.1M NaCl. As to the method:
For surface monolayer studies, a subphase of 0.01M Tris.HCl, pH 7.4 with 0.1M NaCl was prepared with glass-distilled water. Surfactant contaminants were removed by bubbling air through the solution for 10 min, then aspirating the surface of the buffer. Insoluble monolayers were spread from a 2.8×10^-4 M solution of MCT-I in 0.1 mM HCl. The surface pressure π(dyn/cm) of the MCT-I monomolecular layer was measured as a function of area, A (cm^2), using a Lauda™ film balance (Brinkman Instruments, Norwalk, CT). At the air-water interface, MCT-I and SCT-I form insoluble monolayers when spread from concentrated solutions in 0.01M HCl. The force-area (π-A) curves between 5 and 12 dyn/cm are described by the equation π[A-A.infin. (1-κπ)]=nRT where κ is a constant reflecting the compressibility of the monolayer and A.infin. is the limiting molecular area extrapolated to zero surface pressure. The parameters calculated for the two peptides were very similar, κ=0.016 cm/dyn for MCT-I and 0.02 cm/dyn for SCT-I, while A.infin. =362 Å^2 for MCT-I and A.infin. =322 Å^2 for SCT I. However, the collapse pressure of 24 dyn/cm found for the monolayer of MCT-I was much higher than the value of 14 dyn/cm observed for SCT-I.
Surface monolayer studies were conducted as in Example 4. MCT-II forms stable monolayers at the air-water interface when spread from concentrated solutions in 0.01M HCl. The force-area curve (π-A) between 0 dyn/cm and 21 dyn/cm can be described by the equation π(A-A.infin. (1-κπ))=nRT where A.infin. is the limiting molecular area extrapolated to zero surface pressure and κ is a constant reflecting the compressibility of the monolayer. The parameters calculated using the entire π-A curve indicate that MCT-II forms a compact, relatively rigid structure at the air-water interface. A.infin. was 362±10 Å^2 compared with 434±7 Å^2 for MCT-I and 559±18 Å^2 for SCT-I. Monolayers of SCT-I, MCT-I, and MCT-II were successively less compressible with κ having values of 0.03 cm/dyn for SCT-I, 0.02 cm/dyn for MCT-I, and 0.01 cm/dyn for MCT-II. Collapse of the monolayer occurred at 22 dyn/cm which was slightly lower than the 24 dyn/cm observed for MCT-I and higher than for the SCT-I monolayer which collapses at 12 dyn/cm.

Series [2] in a line: Binding to single bilayer egg lecithin vesicles. It counts as physicochemical. The following applies: for Adsorption to the surface of single bilayer egg lecithin vesicles: 1 to 100 μM peptide, SCT-I at pH 7.4 or pH 3.0; for N, upper limit of bound peptide per vesicle / Kd: 7×10^-4 M lecithin; for N, upper limit of bound peptide per vesicle: pH 7.4; for Kd: pH 7.4, 45 min at 21° C., read-out: K, dissociation constant for vesicle binding; for A∞·N product: A∞ from the monolayer studies in Example 7. As to the method: Egg lecithin single bilayer vesicles (SBVs) were prepared by rapid injection of an ethanolic egg yolk lecithin (Avanti Polar-Lipids Inc., Birmingham, AL) solution into aqueous 0.16M KCl by the method of Batzri, S. and E. D. Korn, Biochim. Biophys. Acta 298:1015(1973) and purified by filtration through a 2.5 cm×87 cm column of Fractogel TSK HW-75(F)™ (Pierce Chemical Co., Rockford, IL). After purification, vesicles were characterized by gel filtration through a 1.5 cm×40 cm column of Sepharose CL-4B™ (Pharmacia Fine Chemicals) by the method of Batzri and Korn, supra. The concentration of vesicles in stock solutions were determined by the phosphate assay of Ames, B. N. and D. T. Dubin, J. Biol. Chem. 235:769(1960). In a typical binding experiment, varying concentrations of peptide were incubated for 45 min at 21° C. with vesicles (7×10^-4 M lecithin) in 0.02M sodium phosphate buffer, pH 7.4 containing 0.16M KCl in a total volume of 300 μl for 45 min. Free peptide was separated from vesicle-bound peptide by rapid filtration through a 1.4 cm×6.3 cm column of Sepharose CL-6B™ (Pharmacia Fine Chemicals) using the same buffer as above the eluent. The concentration of peptide in each fraction was determined using fluorescamine after first disrupting the vesicles with isopropanol (20% by volume).
The data for MCT-I and MCT-II were analyzed according to the equation Pf =(N·V·Pf /Pb)-K (Adamson, A. W., Physical Chemistry of Surfaces, 3rd Ed. (Wiley Interscience, New York, 1976), p. 388), where Pf and Pb are the concentration of free and bound peptide respectively, V is the initial molarity of vesicles (3200 phospholipids per vesicle), N is the upper limit of Pf /V, and K is the dissociation constant. Plots of V·Pf /Pb versus Pf were linear and gave K=12.9±4.8 μM with N=50±5 for MCT-I and K=6.7±1.7 μM, N= 68±2 for MCT-II. The product, A.infin. ·N, where A.infin. was obtained from the monolayer studies in Example 7, are nearly the same (A.infin. ·N(MCT-I) =2.2±0.2×10^4 Å^2, A.infin. ·N(MCT-II) =2.5±0.1×10^4 Å^2), accounting for the difference in observed values of N. A.infin. ·N is also in reasonable agreement with estimates of the available surface area between the phospholipid head groups of 230 Å diameter vesicles (1.8±0.6×10^4 Å^2; Kupferberg, J. P., S. Yokoyama, and F. J. Kezdy, J. Biol. Chem. 256:6274(1981)).

Where [3] appears, read: calculated using the entire π-A curve (Example 7).
The mark [4] stands for this setting: π-A curve between 5 and 12 dyn/cm (Example 4).

As for `CC(C)C[C@H](NC(=O)[C@H](CCCCN)NC(=O)[C@H](CCC(N)=O)NC(=O)[C@H](CC(C)C)NC(=O)[C@H](CCC(N)=O)NC(=O)[C@H](CCC(N)=O)NC(=O)[C@H](CC(C)C)NC(=O)[C@H](CC(C)C)NC(=O)[C@@H]1CSSC[C@H](N)C(=O)N[C@@H](CO)C(=O)N[C@@H](CC(N)=O)C(=O)N[C@@H](CC(C)C)C(=O)N[C@@H](CO)C(=O)N[C@@H]([C@@H](C)O)C(=O)N1)C(=O)N[C@@H](CC(C)C)C(=O)N[C@@H](CCC(N)=O)C(=O)N[C@@H](CCCCN)C(=O)N[C@@H](CC(C)C)C(=O)N[C@@H](CCCCN)C(=O)N[C@@H](CCC(N)=O)C(=O)N[C@@H](Cc1ccc(O)cc1)C(=O)N1CCC[C@H]1C(=O)N[C@@H](CCCNC(=N)N)C(=O)N[C@H](C(=O)N[C@@H](CC(N)=O)C(=O)N[C@H](C(=O)NCC(=O)N[C@@H](CO)C(=O)NCC(=O)N[C@H](C(=O)N1CCC[C@H]1C(N)=O)[C@@H](C)O)[C@@H](C)O)[C@@H](C)O` [MCT-II] (H-CSNLSTCLLQQLQKLLQKLKQYPRTNTGSGTP-NH2; disulfide 1-7; N-terminus assumed), the “Collapse pressure of the monolayer” value in series [1] stood at 22 dyn/cm. Further, in series [1] (setting [3]), the “A∞, limiting molecular area extrapolated to zero surface pressure” value (“A∞, limiting molecular area extrapolated” below) is given as 362±10 Å^2 and the “κ, compressibility constant of the monolayer” value (from here on “κ, compressibility constant”) was 0.01 cm/dyn. Further, in series [2], the “Adsorption to the surface of single bilayer egg lecithin vesicles” value is recorded as “adsorb to the surface”; the “N, upper limit of bound peptide per vesicle” value is 68±2; the Kd came out at 6.7 ± 1.7 µM; the “A∞·N product” value is reported as 2.5±0.1×10^4 Å^2.

On to `CC(C)C[C@@H]1NC(=O)[C@H](CC(N)=O)NC(=O)CNC(=O)[C@@H](N)CSSC[C@@H](C(=O)N[C@@H](CC(C)C)C(=O)N[C@@H](CC(C)C)C(=O)N[C@@H](CCC(N)=O)C(=O)N[C@@H](CCC(N)=O)C(=O)N[C@@H](Cc2c[nH]c3ccccc23)C(=O)N[C@@H](CCC(N)=O)C(=O)N[C@@H](CCCCN)C(=O)N[C@@H](CC(C)C)C(=O)N[C@@H](CC(C)C)C(=O)N[C@@H](CCC(N)=O)C(=O)N[C@@H](CCCCN)C(=O)N[C@@H](CC(C)C)C(=O)N[C@@H](CCCCN)C(=O)N[C@@H](CCC(N)=O)C(=O)N[C@@H](CC(C)C)C(=O)N2CCC[C@H]2C(=O)N[C@@H](CCCNC(=N)N)C(=O)N[C@H](C(=O)N[C@@H](CC(N)=O)C(=O)N[C@H](C(=O)NCC(=O)N[C@@H](CO)C(=O)NCC(=O)N[C@H](C(=O)N2CCC[C@H]2C(N)=O)[C@@H](C)O)[C@@H](C)O)[C@@H](C)O)NC(=O)[C@H]([C@@H](C)O)NC(=O)[C@H](CO)NC1=O` [MCT-I] (H-CGNLSTCLLQQWQKLLQKLKQLPRTNTGSGTP-NH2; disulfide 1-7), for which the “Collapse pressure of the monolayer” value in series [1] was 24 dyn/cm. In series [1] (setting [3]), the “A∞, limiting molecular area extrapolated” value is on record as 434±7 Å^2 and the “κ, compressibility constant” value was 0.02 cm/dyn. Further, in series [1] (setting [4]), the “A∞, limiting molecular area extrapolated” value is recorded as 362 Å^2 and the “κ, compressibility constant” value is given as 0.016 cm/dyn. Further, in series [2], the “Adsorption to the surface of single bilayer egg lecithin vesicles” value is “adsorb to the surface”; the “N, upper limit of bound peptide per vesicle” value came out at 50±5; the Kd worked out at 12.9 ± 4.8 µM; the “A∞·N product” value is 2.2±0.2×10^4 Å^2.
